This passage reports Activity results from ChEMBL document CHEMBL5360617, “C-2 Thiophenyl Tryptophan Trimers Inhibit Cellular Entry of SARS-CoV-2 through Interaction with the Viral Spike (S) Protein” (J Med Chem, 2023).

Test [1] concerns SARS-CoV-2. Kind of test: Antiviral activity VSV-S pseudotyped SARS-CoV-2 Wuhan-Hu-1 harboring MN908947 mutant infected in human A549-ACE2 cells assessed as reduction in viral production at 10 uM preincubated with virus for 1 hrs followed by cell infection for 1 hrs and measured 24 hrs after replacement with fresh media with compound relative to control. The arrangement: scale not given: the % may be the effect or the level left. The class given is functional, Severe acute respiratory syndrome coronavirus 2. To be noted: time 26 hrs.

Test [2] has as its system SARS-CoV-2. Kind of test: Antiviral activity VSV-S pseudotyped SARS-CoV-2 Wuhan-Hu-1 harboring MN908947 mutant infected in Green monkey VeroE6/TMPRSS2 cells assessed as reduction in viral production at 10 uM preincubated with virus for 1 hrs followed by cell infection for 1 hrs and measured 24 hrs after replacement with fresh media with compound relative to control. The arrangement: scale not given: the % may be the effect or the level left. The class given is functional, Severe acute respiratory syndrome coronavirus 2. As to conditions: time 26 hrs.

Each structure is given as a SMILES string.

On to `CCC(CC)COC(=O)[C@H](C)N[P@](=O)(OC[C@H]1O[C@@](C#N)(c2ccc3c(N)ncnn23)[C@H](O)[C@@H]1O)Oc1ccccc1`, for which the Activity is given as more than 98% with SARS-CoV-2 [1] and more than 89% in the test on SARS-CoV-2 [2].

On to `NCCOCCOCCC(=O)NCC(=O)NC(CCC(=O)NC(Cc1c(Sc2ccc([N+](=O)[O-])cc2)[nH]c2ccccc12)C(=O)O)(CCC(=O)NC(Cc1c(Sc2ccc([N+](=O)[O-])cc2)[nH]c2ccccc12)C(=O)O)CCC(=O)NC(Cc1c(Sc2ccc([N+](=O)[O-])cc2)[nH]c2ccccc12)C(=O)O` (stereo unspecified), for which the Activity in the test with SARS-CoV-2 [1] is more than 98%; in the test with SARS-CoV-2 [2], more than 89%.

Regarding `O=C(CCOCCOCCOCCOCCC(=O)NCC(=O)NC(CCC(=O)NC(Cc1c(Sc2ccc([N+](=O)[O-])cc2)[nH]c2ccccc12)C(=O)O)(CCC(=O)NC(Cc1c(Sc2ccc([N+](=O)[O-])cc2)[nH]c2ccccc12)C(=O)O)CCC(=O)NC(Cc1c(Sc2ccc([N+](=O)[O-])cc2)[nH]c2ccccc12)C(=O)O)NCC(=O)NC(CCC(=O)NC(Cc1c(Sc2ccc([N+](=O)[O-])cc2)[nH]c2ccccc12)C(=O)O)(CCC(=O)NC(Cc1c(Sc2ccc([N+](=O)[O-])cc2)[nH]c2ccccc12)C(=O)O)CCC(=O)NC(Cc1c(Sc2ccc([N+](=O)[O-])cc2)[nH]c2ccccc12)C(=O)O` (stereo unspecified), the Activity is on record as more than 98% with SARS-CoV-2 [1] and more than 89% in the test on SARS-CoV-2 [2].
